Activity calls are given as the source filed them.
Key:
[1] = target: T1, Calpain-2 catalytic subunit (Sus scrofa, UniProt P43367); experiment: pig calpain II inhibitor potency, dose response, biochemical, fluorogenic peptide substrate (AID 1420); format: functional
T1 sequence (P43367 whole entry): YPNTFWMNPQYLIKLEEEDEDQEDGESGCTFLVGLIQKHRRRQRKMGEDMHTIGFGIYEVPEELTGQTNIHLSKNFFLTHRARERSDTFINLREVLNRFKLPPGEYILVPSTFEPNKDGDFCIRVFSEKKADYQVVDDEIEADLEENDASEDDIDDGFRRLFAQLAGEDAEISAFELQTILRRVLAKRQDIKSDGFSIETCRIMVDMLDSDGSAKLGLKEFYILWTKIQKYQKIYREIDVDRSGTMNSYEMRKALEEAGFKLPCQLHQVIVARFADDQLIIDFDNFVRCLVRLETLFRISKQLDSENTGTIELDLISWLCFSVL

[2] = HEp-2 cell cytotoxicity, dose response, cytotoxicity control for RSV inhibitor project, HTS (AID 2410); format: functional; conditions: human respiratory syncytial virus
[3] = cells
[4] = growth suppression of PTEN-null colon cells, dose response, cell-based, HCT116 PTEN knockout (AID 1047); format: functional;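 note: HCT116 colon tumor cells with PTEN knocked out; cells exposed to compound for 60 hours before readout; potency for loss of cell viability measured by luminescence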
[5] = target: Luciferin 4-monooxygenase (Photinus pyralis, UniProt P08659); experiment: firefly luciferase enzyme inhibitors, dose response, biochemical, luminescence (AID 1891)
Sequence of Luciferin 4-monooxygenase (P08659 whole entry): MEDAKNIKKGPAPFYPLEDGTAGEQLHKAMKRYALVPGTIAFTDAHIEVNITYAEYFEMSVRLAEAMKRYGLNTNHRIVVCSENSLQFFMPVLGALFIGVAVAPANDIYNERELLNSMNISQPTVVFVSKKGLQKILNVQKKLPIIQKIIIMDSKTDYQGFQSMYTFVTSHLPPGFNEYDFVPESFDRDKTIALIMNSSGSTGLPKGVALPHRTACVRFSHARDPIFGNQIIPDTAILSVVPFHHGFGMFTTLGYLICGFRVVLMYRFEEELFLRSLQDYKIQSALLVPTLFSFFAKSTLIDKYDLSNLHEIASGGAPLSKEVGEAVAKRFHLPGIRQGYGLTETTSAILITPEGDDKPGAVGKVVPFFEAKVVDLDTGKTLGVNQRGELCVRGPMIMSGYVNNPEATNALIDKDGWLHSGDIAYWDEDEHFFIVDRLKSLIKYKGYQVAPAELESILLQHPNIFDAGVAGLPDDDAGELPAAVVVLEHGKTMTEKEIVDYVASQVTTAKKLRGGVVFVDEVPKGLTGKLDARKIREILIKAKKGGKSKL

[6] = target: Cytochrome P450 2C19 (Homo sapiens, UniProt P33261); experiment: Cytochrome panel assay with activity outcomes. Panel member name: p450-cyp2c19 Compounds with AC50 equal or less than 10 uM are considered active; format: functional; conditions: read-out: AC50
Sequence of Cytochrome P450 2C19 (P33261 whole entry): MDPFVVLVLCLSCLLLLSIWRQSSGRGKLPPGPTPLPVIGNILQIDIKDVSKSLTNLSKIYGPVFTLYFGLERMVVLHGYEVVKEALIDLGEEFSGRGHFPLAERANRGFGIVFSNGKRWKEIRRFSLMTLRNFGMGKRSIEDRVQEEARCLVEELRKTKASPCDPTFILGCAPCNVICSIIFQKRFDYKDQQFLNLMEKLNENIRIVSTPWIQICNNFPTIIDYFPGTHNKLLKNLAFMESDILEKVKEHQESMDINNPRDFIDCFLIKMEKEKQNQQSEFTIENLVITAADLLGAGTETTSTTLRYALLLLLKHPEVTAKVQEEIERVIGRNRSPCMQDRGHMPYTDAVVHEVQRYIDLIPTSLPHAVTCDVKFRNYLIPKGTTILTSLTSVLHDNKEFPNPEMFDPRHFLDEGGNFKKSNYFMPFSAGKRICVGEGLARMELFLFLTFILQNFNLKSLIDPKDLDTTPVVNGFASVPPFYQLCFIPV

[7] = cytotoxicity in HEK-293T cells, dose response, cytotoxicity control for TCR NF-kB inhibitor project, luminescence, T-cell screen hits (AID 489026); format: functional, cell-based;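 note: cells exposed to compound about 14 hours before the viability readout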
[8] = Luminescence Cell-Based Dose Confirmation HTS to Identify Inhibitors of Platelet Dense Granule Release. [Related pubchem assays: 1663 (Primary HTS), 1678 (Summary of Project)]; format: functional
[9] = growth suppression of beta-catenin-knockout colon cells, dose response, cell-based, HCT116, human colon tumor (AID 1045); format: functional;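 note: HCT116 colon tumor cells with beta catenin knocked out; cells exposed to compound for 60 hours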
[10] = ZM109 Env clade C HIV-1 fusion inhibitors, dose response, HeLa effector, CEM target cells, luciferase, cherry-pick (AID 652058); format: functional, cell-based
[11] = inhibitors of HIV Env-driven cell fusion, dose response, cherry-pick (AID 652057); format: functional, cell-based
[12] = inhibitors of clade B AD8 Env fusion, dose response, cell-based, cherry-pick (AID 652062); format: functional;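 note: luciferase signal from cell-cell fusion driven by HIV-1 clade B AD8 Env; potency is for inhibitors of fusion seen as a drop in luminescence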
[13] = off-target signal loss in HeLa-CEM21 co-culture – HeLa F-luc CTL cells, cherry-picked, counter-screen for HIV-1 Env fusion inhibitor project, dose response (AID 652040); format: functional, cell-based;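 note: potency for signal decrease marking cytotoxic or nonspecific inhibition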
[14] = microbe, parasite or virus in culture; format: functional; conditions: Mycobacterium tuberculosis
[15] = cytotoxicity toward NIH3T3 fibroblasts, dose response, counter-screen, cell-based, ATP luminescence, mouse fibroblasts (AID 2010); format: functional;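 note: cells exposed to compound for about 90 hours before reading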
[16] = inhibitors of intracellular T. cruzi replication, confirmation, NIH3T3 host cells, beta-gal luminescence (AID 2044); format: functional, cell-based;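 note: intracellular parasites grown in NIH/3T3 mouse fibroblasts as host cells; luminescent beta-galactosidase reporter signal from transgenic T. cruzi replicating inside host cells; inhibitors lower the luminescence signal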
[17] = tested on: Vero; experiment: cells; format: functional; conditions: Chlorocebus sabaeus
[18] = tested on: H9c2; experiment: cells; format: functional, cell-based; conditions: Rattus norvegicus, H9c2, Myocardium;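 note: confirmatory concentration-response retest of ultra-high-throughput screening hits for modulation of myocardial damage; cell death induced by hydrogen peroxide oxidative stress; compound pretreatment for 60 min then peroxide exposure for 2 h; potency is for protecting the cells against peroxide damage rather than for killing them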
[19] = tested on: HEK293; experiment: inhibitors of LMP1-driven NF-kB reporter, dose response, cell-based, HEK293, luciferase, cherry-pick (AID 588343); format: functional; conditions: Homo sapiens
[20] = cells; format: functional, cell-based
[21] = cells; format: functional, cell-based; remark: listed apart in the source
[22] = tested on: INS1; experiment: beta cell apoptosis inhibitors, cytokine rescue, dose response, luminescence, retest (AID 449756); format: functional, cell-based; conditions: Rattus norvegicus;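 note: cell death triggered by IL-1 beta plus TNF-alpha plus IFN-gamma mixture; protective hits raise ATP signal compared with cytokine alone wells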
[23] = tested on: Streptococcus; experiment: Group A Streptococcus viability loss, dose response, counter-screen for streptokinase expression inhibitor project, luminescence, BacTiterGlo (AID 1915); format: functional, organism-based;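 note: potency for reduction of bacterial viability or growth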
[24] = tested on: Streptococcus sp. 'group A'; experiment: growth inhibition of control SK(-) GAS strain, dose response, counter-screen for streptokinase expression inhibitor project, luminescence, kanamycin, BacTiterGlo, confirmation (AID 1900); format: functional, organism-based
[25] = target: T2, Polyadenylate-binding protein 1 (Homo sapiens, UniProt P11940); experiment: PABP1 MLLE–PAM2 binding inhibitor potency, dose response, biochemical, fluorescence polarization, FITC-PAM2 peptide (AID 602259); format: functional; conditions: read-out: IC50_Mean
T2 sequence (P11940 whole entry): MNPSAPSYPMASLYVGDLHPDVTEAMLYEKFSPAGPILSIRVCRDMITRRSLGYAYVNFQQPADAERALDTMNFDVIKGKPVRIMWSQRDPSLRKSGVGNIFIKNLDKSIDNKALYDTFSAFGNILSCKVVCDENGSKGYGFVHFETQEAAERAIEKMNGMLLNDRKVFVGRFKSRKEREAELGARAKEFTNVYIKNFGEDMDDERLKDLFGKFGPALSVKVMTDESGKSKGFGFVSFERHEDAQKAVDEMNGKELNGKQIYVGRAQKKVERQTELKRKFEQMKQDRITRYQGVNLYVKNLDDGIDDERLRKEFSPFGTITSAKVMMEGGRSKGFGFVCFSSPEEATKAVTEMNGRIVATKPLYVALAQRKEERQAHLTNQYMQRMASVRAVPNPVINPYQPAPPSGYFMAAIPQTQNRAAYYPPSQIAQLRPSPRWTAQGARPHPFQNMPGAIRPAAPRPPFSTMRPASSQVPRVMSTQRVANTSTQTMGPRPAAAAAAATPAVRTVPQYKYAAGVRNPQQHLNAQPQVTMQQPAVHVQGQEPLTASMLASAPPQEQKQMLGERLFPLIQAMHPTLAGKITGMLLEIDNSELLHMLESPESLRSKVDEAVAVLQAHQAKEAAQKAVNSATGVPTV

[26] = target: T2, Polyadenylate-binding protein 1; experiment: PABP1 MLLE–PAM2 interaction inhibitors, dose response, miRNA deadenylation inhibitor project, biochemical, fluorescence polarization, Cy5-PAM2 peptide, secondary (AID 602260); format: functional; conditions: read-out: IC50_Mean
[27] = control 3'UTR Renilla luciferase suppression, dose response, counter-screen for Shn3 inhibitor project, cell-based, Clone20-Shn3RL, cherry-picked (AID 624133); format: functional
[28] = HepG2 cell cytotoxicity, dose response, cytotoxicity control for Shn3 inhibitor project, CellTiter-Glo, cherry-picked (AID 624134); format: functional, cell-based
[29] = Shn3 3'UTR reporter inhibitors, dose response, cell-based, Clone20 osteoblasts, firefly luciferase, cherry-picked (AID 624132); format: functional;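 note: firefly luciferase luminescence from reporter carrying the Shn3 3'UTR in osteoblasts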
[30] = target: T3, Fatty acid synthase (Homo sapiens, UniProt P49327); experiment: FAS thioesterase domain inhibitors, dose response, biochemical, kinetic fluorescence intensity (AID 624326); format: functional;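 note: rate of fluorescence rise from hydrolysis of a fluorogenic O-methyl fluorescein ester substrate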
T3 sequence (P49327 whole entry, the tested form may be a part): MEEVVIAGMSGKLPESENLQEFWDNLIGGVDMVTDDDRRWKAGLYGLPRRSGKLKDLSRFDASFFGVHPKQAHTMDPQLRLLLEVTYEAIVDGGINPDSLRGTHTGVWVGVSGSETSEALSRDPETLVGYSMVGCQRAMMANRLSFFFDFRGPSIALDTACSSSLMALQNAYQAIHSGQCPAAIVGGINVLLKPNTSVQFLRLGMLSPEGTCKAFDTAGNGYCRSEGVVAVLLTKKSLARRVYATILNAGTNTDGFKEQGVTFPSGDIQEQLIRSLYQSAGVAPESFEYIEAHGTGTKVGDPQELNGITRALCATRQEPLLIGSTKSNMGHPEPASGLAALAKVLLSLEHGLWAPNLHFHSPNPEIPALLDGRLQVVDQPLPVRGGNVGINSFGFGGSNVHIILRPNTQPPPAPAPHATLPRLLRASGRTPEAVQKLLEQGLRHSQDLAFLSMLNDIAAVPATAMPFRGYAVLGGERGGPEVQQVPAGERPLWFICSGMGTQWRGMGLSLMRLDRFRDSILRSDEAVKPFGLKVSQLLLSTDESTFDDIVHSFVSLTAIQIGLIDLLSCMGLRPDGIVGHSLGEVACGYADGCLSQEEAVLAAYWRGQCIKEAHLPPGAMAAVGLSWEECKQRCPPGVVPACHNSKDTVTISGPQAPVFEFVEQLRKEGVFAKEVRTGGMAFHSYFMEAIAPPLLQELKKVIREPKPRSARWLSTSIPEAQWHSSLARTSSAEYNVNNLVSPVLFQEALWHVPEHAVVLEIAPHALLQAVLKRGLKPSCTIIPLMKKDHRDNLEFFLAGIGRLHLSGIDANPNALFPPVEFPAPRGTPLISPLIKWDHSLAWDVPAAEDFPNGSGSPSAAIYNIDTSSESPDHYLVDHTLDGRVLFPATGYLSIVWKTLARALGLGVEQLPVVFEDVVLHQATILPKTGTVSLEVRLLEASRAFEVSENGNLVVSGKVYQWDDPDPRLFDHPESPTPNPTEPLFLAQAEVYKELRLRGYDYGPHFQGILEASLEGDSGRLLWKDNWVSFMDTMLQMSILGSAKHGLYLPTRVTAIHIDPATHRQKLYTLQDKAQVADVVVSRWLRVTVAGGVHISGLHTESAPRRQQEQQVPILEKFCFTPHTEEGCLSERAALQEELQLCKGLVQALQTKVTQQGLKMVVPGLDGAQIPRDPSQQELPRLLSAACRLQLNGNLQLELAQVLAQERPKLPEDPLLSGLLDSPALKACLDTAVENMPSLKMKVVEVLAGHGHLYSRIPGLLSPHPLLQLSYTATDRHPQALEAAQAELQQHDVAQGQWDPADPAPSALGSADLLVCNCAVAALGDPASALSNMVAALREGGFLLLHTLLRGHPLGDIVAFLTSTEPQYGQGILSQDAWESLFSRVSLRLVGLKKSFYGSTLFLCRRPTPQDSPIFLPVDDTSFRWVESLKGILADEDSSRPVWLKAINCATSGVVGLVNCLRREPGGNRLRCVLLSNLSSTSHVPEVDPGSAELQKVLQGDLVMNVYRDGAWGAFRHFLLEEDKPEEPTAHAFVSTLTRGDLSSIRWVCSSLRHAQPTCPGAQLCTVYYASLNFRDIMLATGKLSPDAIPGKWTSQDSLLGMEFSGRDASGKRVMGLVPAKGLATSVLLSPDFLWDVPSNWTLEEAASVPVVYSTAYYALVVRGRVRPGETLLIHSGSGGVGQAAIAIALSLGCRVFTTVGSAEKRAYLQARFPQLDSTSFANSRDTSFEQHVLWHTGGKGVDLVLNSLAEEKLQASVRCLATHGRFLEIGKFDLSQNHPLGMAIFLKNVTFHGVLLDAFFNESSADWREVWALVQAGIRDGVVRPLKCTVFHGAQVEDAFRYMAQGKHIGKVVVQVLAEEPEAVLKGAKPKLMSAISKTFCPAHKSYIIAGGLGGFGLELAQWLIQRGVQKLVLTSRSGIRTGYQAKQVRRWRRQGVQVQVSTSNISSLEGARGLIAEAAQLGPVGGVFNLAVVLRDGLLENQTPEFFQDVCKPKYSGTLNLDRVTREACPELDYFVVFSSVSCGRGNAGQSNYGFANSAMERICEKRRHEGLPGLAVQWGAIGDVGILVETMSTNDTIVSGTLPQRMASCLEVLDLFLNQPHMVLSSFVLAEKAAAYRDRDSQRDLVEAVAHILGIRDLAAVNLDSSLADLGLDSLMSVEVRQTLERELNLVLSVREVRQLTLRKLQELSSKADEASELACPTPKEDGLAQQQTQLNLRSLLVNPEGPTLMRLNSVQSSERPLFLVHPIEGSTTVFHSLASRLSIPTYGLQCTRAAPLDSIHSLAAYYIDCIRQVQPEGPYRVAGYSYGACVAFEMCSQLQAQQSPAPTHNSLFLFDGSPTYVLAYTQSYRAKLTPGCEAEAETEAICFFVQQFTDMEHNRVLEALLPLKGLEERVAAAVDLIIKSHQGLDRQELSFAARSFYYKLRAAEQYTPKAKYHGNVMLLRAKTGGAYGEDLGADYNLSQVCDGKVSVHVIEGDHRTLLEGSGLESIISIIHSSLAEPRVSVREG

[31] = target: T3, Fatty acid synthase; experiment: FAS thioesterase domain inhibitors, dose response, biochemical, endpoint fluorescence intensity, uHTS hits (AID 624327); format: functional;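 note: fluorescence from hydrolysis of an O-methyl fluorescein acyl ester substrate by the enzyme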
[32] = inhibitors of firefly luciferase expression or activity, dose response, H4 neuroglioma cells, luminescence (AID 1990); format: functional, cell-based
[33] = Luminescence Cell-Based Dose Response HTS to Identify Inhibitors of 5'UTR Stem-Loop Driven Prion Protein mRNA Translation in H4 Neuroglioblastoma Cells. [Related pubchem assays: 1827 (Project Summary), 1813 (Primary HTS)]; format: functional
[34] = inhibitors of SNCA 5'UTR-driven reporter translation, confirmation, H4 neuroglioma cells, luminescence (AID 1988); format: functional, cell-based

CC(C)Sc1nc2c3ccccc3nc-2c(O)n1C
IC50 [1]: 0.899 µM (not active)

CCOC(=O)N1CCC(NC(=O)c2ccc3c(c2)ncn3C2CCCC2)CC1
IC50 [1]: 23.1 µM (not active)

CCOC(=O)C1CN(S(=O)(=O)c2ccc(C)cc2)C1
IC50 [1]: 4.65 µM (not active)

O=S(=O)(c1ccccc1F)N1CCCC(c2nc(O)c3nnn(Cc4ccccc4Cl)c3n2)C1 (stereo not given)
CC50 [2]: 47.8 µM (active)
IC50 [3]: 47.6 µM (active)

O=Cc1ccc(-c2ccc([N+](=O)[O-])cc2Cl)o1
IC50 [1]: > 50 µM (not active)

CCCCCCCCC[n+]1cccc2c3ccccc3ccc21
EC50 [4]: 0.868 µM (active)
EC50 [5]: 67.9 µM (active)
AC50 [6]: 20 µM (inconclusive)
IC50 [7]: 49.8 µM (inactive)
EC50 [8]: 64.7 µM (active)
EC50 [9]: 0.798 µM (active)

COC(=O)[C@@]1(C)[C@H]2C(=O)N(Cc3ccccc3)C(=O)[C@H]2[C@H]2CN=C(SCc3ccccc3)N21
AC50 [10]: 0.74 µM (active)
AC50 [11]: 0.75 µM (active)
AC50 [12]: 4.03 µM (active)
AC50 [13]: 1.02 µM (active)

c1ccc(C[C@H]2CN=C(Nc3ccccc3)N2CCCC2CCCC2)cc1
CC50 [14]: > 40 µM (active)

Cc1ncccc1C(=O)N1CCCC(C(=O)c2ccc3c4c(cccc24)CC3)C1 (stereo not given)
AC50 [10]: 8.12 µM (active)
AC50 [11]: 7.15 µM (active)
AC50 [12]: 8.47 µM (active)
AC50 [13]: 20.4 µM (active)

CCc1ccc2nc(N(CCCN(C)C)C(=O)c3ccc4c(c3)OCCO4)sc2c1
EC50 [15]: 8.8 µM (active)
EC50 [16]: 0.214 µM (active)
CC50 [17]: > 25 µM (active)

COc1ccccc1NCC(=O)Nc1cc(S(=O)(=O)N2CCOCC2)ccc1N1CCOCC1
IC50 [3]: 5.88 µM (active)

COc1cc(-c2nnc(-c3cc(OC)c(OC)c(OC)c3)o2)cc(OC)c1OC
EC50 [5]: > 112 µM (not active)
EC50 [8]: 41 µM (active)
IC50 [18]: > 79 µM (inactive)

CCc1ccc2nc(O)c(C(c3nnnn3Cc3ccc(OC)cc3)N3CCOCC3)cc2c1 (stereo not given)
AC50 [10]: 6.44 µM (active)
AC50 [11]: 4.74 µM (active)
AC50 [12]: 43.7 µM (active)
AC50 [13]: 7.97 µM (active)

Cc1ccc(OCc2cc(C(=O)N(C)Cc3cnc4ccccn34)no2)cc1C
CC50 [14]: > 40 µM (active)

COc1ccc2c(c1)C(=NNC(=O)c1ccccn1)c1cc(OC)ccc1-2
CC50 [2]: 38.6 µM (active)
IC50 [3]: 24.6 µM (active)

O=C(Nc1cccc(Cl)c1)Nc1cccc(C(=O)O)c1
AC50 [19]: 10.5 µM (active)
EC50 [20]: > 350 µM (not active)
EC50 [21]: 7.49 µM (active)

CCOC(=O)c1c(CSc2nc(C)cc(C)c2C#N)n(C)c2cc(Br)c(OC(C)=O)cc12
AC50 [19]: 31.6 µM (active)
AC50 [22]: 4.21 µM (active)

CCOCCOC(=O)c1[nH]c2c(c1C)C(=O)CC(c1cccs1)C2 (stereo not given)
IC50 [7]: > 80 µM (inactive)

CCOC(=O)C1=C(CNC(C)(C)CC(C)(C)C)NC(=O)NC1c1cccc([N+](=O)[O-])c1 (stereo not given)
IC50 [1]: > 50 µM (not active)

O=C(/C=C/c1ccc(Br)cc1)NC(=S)NNC(=O)c1ccco1
CC50 [17]: > 25 µM (active)
EC50 [23]: 0.887 µM (active)
EC50 [24]: 0.343 µM (active)

COc1cc(C#Cc2c(-c3cncn3C)n(C)c3ccc(-c4cnc(N5CCOCC5)nc4)cc23)cc(OC)c1
CC50 [14]: 29.3 µM (active)

O=C(NCc1cccnc1)C1CCC(CNS(=O)(=O)c2ccc(Cl)cc2)CC1 (stereo not given)
IC50 [1]: 2.58 µM (not active)

OCCCNCc1ccc(N(c2ccccc2)c2ccccc2)cc1
CC50 [17]: > 25 µM (active)

S=C(Nc1ccc(Nc2ccccc2)cc1)Nc1ccccn1
CC50 [14]: > 40 µM (active)
IC50 [25]: > 66 µM (inactive)
AC50 [22]: 6.34 µM (active)
IC50 [26]: > 66 µM (inactive)

C=C(CN(C)C)C(=O)c1ccc(C)cc1C
AC50 [27]: 5.15 µM (active)
AC50 [28]: 18.5 µM (active)
AC50 [29]: 0.77 µM (active)

Cc1ccc(S(=O)(=O)Nc2cccc(-c3ccc4nncn4n3)c2)cc1
IC50 [30]: 21.3 µM (inactive)
IC50 [7]: > 80 µM (inactive)
IC50 [31]: 15.7 µM (active)

CC(C)=CCC/C(C)=C/CNC(=O)C[C@H]1C[C@H](C(=O)N(C(C)C)C(C)C)[C@@]2(C)c3[nH]c4cc(CCC(=O)N(C)C)ccc4c3CCN2C1=O
AC50 [27]: 11.9 µM (active)
AC50 [29]: 2.05 µM (active)

CCOc1ccc(CCN2C(=S)N([C@@H](CC(C)C)CN3CCCC3CN3C(=S)NC[C@@H]3Cc3ccc(O)cc3)C[C@@H]2Cc2ccc(O)cc2)cc1 (stereo not given in full)
AC50 [27]: 6.52 µM (active)
AC50 [28]: 53.9 µM (active)
AC50 [29]: 11.5 µM (active)

O=C1C=C(c2ccc3ncccc3c2)C[C@@H](c2ccc3c(c2)OCO3)C1
IC50 [7]: > 80 µM (inactive)

CC1CCCN(CCCNC(=O)c2ccc3c(c2)N(Cc2cccc(Cl)c2)C(=O)c2ccccc2[S+]3[O-])C1 (stereo not given)
CC50 [17]: > 25 µM (active)

O=C(NN=Cc1ccc(N(CCCl)CCCl)cc1)c1cccnc1
AC50 [19]: 1.08 µM (active)

Cc1ccc(Nc2nc(NCC3CC3)nc3ccsc23)c(C)c1
AC50 [27]: 19.4 µM (active)
AC50 [28]: > 70 µM (inactive)
AC50 [29]: 5.82 µM (active)

O=C(O)c1ccc(N/N=C/c2cc3cc4c(cc3nc2Cl)OCCO4)cc1
AC50 [19]: 1.69 µM (active)

C[C@@H]1CN([C@H](C)CO)C(=O)c2cccc(NS(=O)(=O)c3cccs3)c2O[C@@H]1CN(C)Cc1ccc(Cl)c(Cl)c1
AC50 [10]: 0.952 µM (active)
AC50 [11]: 0.444 µM (active)
AC50 [12]: 2.53 µM (active)

C[C@@H]1CN([C@H](C)CO)C(=O)c2cc(C#Cc3ccncc3)cnc2O[C@@H]1CN(C)S(=O)(=O)c1ccccc1F
AC50 [10]: 25.1 µM (active)
AC50 [11]: 30 µM (active)

COc1ccc2cc(C(N)=O)/c(=N\NC(=O)c3ccccc3)oc2c1
AC50 [19]: 2.83 µM (active)
EC50 [32]: 9.51 µM (inconclusive)
EC50 [33]: 8.54 µM (active)
EC50 [34]: 7.7 µM (active)

CC(=O)O[C@H]1C(=O)[C@]2(C)[C@H]([C@H](OC(=O)c3ccccc3)[C@]3(O)C[C@H](OC(=O)[C@H](O)[C@@H](NC(=O)c4ccccc4)c4ccccc4)C(C)=C1C3(C)C)[C@]1(OC(C)=O)CO[C@@H]1C[C@@H]2O
IC50 [7]: > 80 µM (inactive)

Reference: ChEMBL document CHEMBL1201862, “PubChem BioAssay data set” (2004)
